Measurements: PubChem BioAssay (NCI)
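Tested at 5 concentrations; 48 h exposure; 96-well plates; endpoints linearly interpolated, else capped at highest concentration. TGI: concentration producing complete growth inhibition.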

Key:
Assay in all cases: NCI tumour cell line growth inhibition, 48 h
786-0 renal = test system: 786-0 renal
A498 renal = test system: A498 renal
A549 NSCLC = test system: A549 NSCLC
ACHN renal = test system: ACHN renal
BT-549 breast = test system: BT-549 breast
CAKI-1 renal = test system: CAKI-1 renal
CCRF-CEM leukemia = test system: CCRF-CEM leukemia
COLO 205 colon = test system: COLO 205 colon
DU-145 prostate = test system: DU-145 prostate
EKVX NSCLC = test system: EKVX NSCLC
HCC-2998 colon = test system: HCC-2998 colon
HCT-116 colon = test system: HCT-116 colon
HCT-15 colon = test system: HCT-15 colon
HL-60(TB) leukemia = test system: HL-60(TB) leukemia
HOP-62 NSCLC = test system: HOP-62 NSCLC
HOP-92 NSCLC = test system: HOP-92 NSCLC
HT29 colon = test system: HT29 colon
IGROV1 ovarian = test system: IGROV1 ovarian
K-562 leukemia = test system: K-562 leukemia
KM12 colon = test system: KM12 colon
LOX IMVI melanoma = test system: LOX IMVI melanoma
M14 melanoma = test system: M14 melanoma
MALME-3M melanoma = test system: MALME-3M melanoma
MCF7 breast = test system: MCF7 breast
MDA-MB-231 breast = test system: MDA-MB-231 breast
MDA-MB-435 = test system: MDA-MB-435
MDA-N = test system: MDA-N
MOLT-4 leukemia = test system: MOLT-4 leukemia
NCI-H226 lung = test system: NCI-H226 lung
NCI-H23 lung = test system: NCI-H23 lung
NCI-H460 lung = test system: NCI-H460 lung
NCI-H522 lung = test system: NCI-H522 lung
NCI/ADR-RES ovarian = test system: NCI/ADR-RES ovarian
OVCAR-3 ovarian = test system: OVCAR-3 ovarian
OVCAR-4 ovarian = test system: OVCAR-4 ovarian
OVCAR-5 ovarian = test system: OVCAR-5 ovarian
OVCAR-8 ovarian = test system: OVCAR-8 ovarian
PC-3 prostate = test system: PC-3 prostate
RPMI-8226 leukemia = test system: RPMI-8226 leukemia
RXF 393 renal = test system: RXF 393 renal
SF-268 CNS = test system: SF-268 CNS
SF-295 CNS = test system: SF-295 CNS
SF-539 CNS = test system: SF-539 CNS
SK-MEL-2 melanoma = test system: SK-MEL-2 melanoma
SK-MEL-28 melanoma = test system: SK-MEL-28 melanoma
SK-MEL-5 melanoma = test system: SK-MEL-5 melanoma
SK-OV-3 ovarian = test system: SK-OV-3 ovarian
SN12C renal = test system: SN12C renal
SNB-19 CNS = test system: SNB-19 CNS
SNB-75 CNS = test system: SNB-75 CNS
SW-620 colon = test system: SW-620 colon
T-47D breast = test system: T-47D breast
TK-10 renal = test system: TK-10 renal
U251 CNS = test system: U251 CNS
UACC-257 melanoma = test system: UACC-257 melanoma
UACC-62 melanoma = test system: UACC-62 melanoma
UO-31 renal = test system: UO-31 renal
SR leukemia = test system: SR leukemia

CCOC(=O)[C@@H]1C2C(=C[C@H]3[C@H]1C(=O)N1CCCC[C@H]31)CCCN2C(=O)OCc1ccccc1 (some centres undefined)
TGI (786-0 renal): > 100 µM
TGI (A498 renal): 96 µM
TGI (A549 NSCLC): > 100 µM
TGI (ACHN renal): > 100 µM
TGI (BT-549 breast): 62.5 µM
TGI (CAKI-1 renal): > 100 µM
TGI (CCRF-CEM leukemia): > 100 µM
TGI (COLO 205 colon): 51.3 µM
TGI (DU-145 prostate): > 100 µM
TGI (EKVX NSCLC): > 100 µM
TGI (HCC-2998 colon): 53.1 µM
TGI (HCT-116 colon): > 100 µM
TGI (HCT-15 colon): > 100 µM
TGI (HL-60(TB) leukemia): 45 µM
TGI (HOP-62 NSCLC): > 100 µM
TGI (HOP-92 NSCLC): > 100 µM
TGI (HT29 colon): > 100 µM
TGI (IGROV1 ovarian): > 100 µM
TGI (K-562 leukemia): > 100 µM
TGI (KM12 colon): > 100 µM
TGI (LOX IMVI melanoma): > 100 µM
TGI (M14 melanoma): > 100 µM
TGI (MALME-3M melanoma): > 100 µM
TGI (MCF7 breast): > 100 µM
TGI (MDA-MB-231 breast): > 100 µM
TGI (MDA-MB-435): > 100 µM
TGI (MDA-N): > 100 µM
TGI (MOLT-4 leukemia): 38.2 µM
TGI (NCI-H226 lung): > 100 µM
TGI (NCI-H23 lung): 93.9 µM
TGI (NCI-H460 lung): 82.6 µM
TGI (NCI-H522 lung): 45.2 µM
TGI (NCI/ADR-RES ovarian): 81.2 µM
TGI (OVCAR-3 ovarian): > 100 µM
TGI (OVCAR-4 ovarian): > 100 µM
TGI (OVCAR-5 ovarian): > 100 µM
TGI (OVCAR-8 ovarian): > 100 µM
TGI (PC-3 prostate): 77.6 µM
TGI (RPMI-8226 leukemia): 46.4 µM
TGI (RXF 393 renal): > 100 µM
TGI (SF-268 CNS): 60.3 µM
TGI (SF-295 CNS): > 100 µM
TGI (SF-539 CNS): > 100 µM
TGI (SK-MEL-2 melanoma): 56.8 µM
TGI (SK-MEL-28 melanoma): > 100 µM
TGI (SK-MEL-5 melanoma): > 100 µM
TGI (SK-OV-3 ovarian): > 100 µM
TGI (SN12C renal): > 100 µM
TGI (SNB-19 CNS): > 100 µM
TGI (SNB-75 CNS): > 100 µM
TGI (SW-620 colon): > 100 µM
TGI (T-47D breast): > 100 µM
TGI (TK-10 renal): > 100 µM
TGI (U251 CNS): > 100 µM
TGI (UACC-257 melanoma): > 100 µM
TGI (UACC-62 melanoma): 39.2 µM
TGI (UO-31 renal): > 100 µM

O=C(O)c1ccccc1SCc1cccc2c(=O)c3ccc(Cl)cc3oc12
TGI (786-0 renal): > 50 µM
TGI (A498 renal): > 50 µM
TGI (A549 NSCLC): > 50 µM
TGI (ACHN renal): > 50 µM
TGI (BT-549 breast): > 50 µM
TGI (CAKI-1 renal): > 50 µM
TGI (CCRF-CEM leukemia): > 50 µM
TGI (COLO 205 colon): > 50 µM
TGI (EKVX NSCLC): > 50 µM
TGI (HCC-2998 colon): > 50 µM
TGI (HCT-116 colon): > 50 µM
TGI (HCT-15 colon): > 50 µM
TGI (HL-60(TB) leukemia): 27.7 µM
TGI (HOP-62 NSCLC): 47.3 µM
TGI (HT29 colon): > 50 µM
TGI (IGROV1 ovarian): > 50 µM
TGI (K-562 leukemia): > 50 µM
TGI (KM12 colon): > 50 µM
TGI (LOX IMVI melanoma): > 50 µM
TGI (M14 melanoma): > 50 µM
TGI (MALME-3M melanoma): 44.9 µM
TGI (MCF7 breast): > 50 µM
TGI (MDA-MB-231 breast): > 50 µM
TGI (MDA-MB-435): > 50 µM
TGI (MDA-N): > 50 µM
TGI (MOLT-4 leukemia): > 50 µM
TGI (NCI-H226 lung): > 50 µM
TGI (NCI-H23 lung): > 50 µM
TGI (NCI-H522 lung): > 50 µM
TGI (NCI/ADR-RES ovarian): > 50 µM
TGI (OVCAR-3 ovarian): > 50 µM
TGI (OVCAR-4 ovarian): > 50 µM
TGI (OVCAR-5 ovarian): > 50 µM
TGI (OVCAR-8 ovarian): > 50 µM
TGI (PC-3 prostate): > 50 µM
TGI (RPMI-8226 leukemia): > 50 µM
TGI (SF-295 CNS): > 50 µM
TGI (SF-539 CNS): > 50 µM
TGI (SK-MEL-2 melanoma): > 50 µM
TGI (SK-MEL-28 melanoma): > 50 µM
TGI (SK-MEL-5 melanoma): > 50 µM
TGI (SK-OV-3 ovarian): > 50 µM
TGI (SN12C renal): > 50 µM
TGI (SNB-75 CNS): > 50 µM
TGI (SR leukemia): > 50 µM
TGI (SW-620 colon): > 50 µM
TGI (T-47D breast): > 50 µM
TGI (TK-10 renal): > 50 µM
TGI (U251 CNS): > 50 µM
TGI (UACC-257 melanoma): > 50 µM
TGI (UACC-62 melanoma): > 50 µM
TGI (UO-31 renal): > 50 µM
